Assay results from ChEMBL document CHEMBL1201862, “PubChem BioAssay data set” (2004).
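Each compound was tested at five concentrations against cells in 96-well plates for 48 hours. Abbreviation: GI50, concentration required for 50% inhibition of growth.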 Active and inactive are the calls of the source. No stated cut-off is given here; in the data, active = GI50 up to about 1.1 µM and inactive = higher.

Key:
Test in all cases: inhibition of tumour cell growth, NCI panel, 48 h
786-0 = test system: 786-0
A498 = test system: A498
A549 = test system: A549
ACHN = test system: ACHN
BT-549 = test system: BT-549
CAKI-1 = test system: CAKI-1
CCRF-CEM = test system: CCRF-CEM
COLO 205 = test system: COLO 205
DU-145 = test system: DU-145
EKVX = test system: EKVX
HCC 2998 = test system: HCC 2998
HCT-116 = test system: HCT-116
HCT-15 = test system: HCT-15
HL-60 = test system: HL-60
HOP-62 = test system: HOP-62
HOP-92 = test system: HOP-92
HT-29 = test system: HT-29
Hs-578T = test system: Hs-578T
IGROV-1 = test system: IGROV-1
K562 = test system: K562
KM12 = test system: KM12
LOX IMVI = test system: LOX IMVI
M14 = test system: M14
MCF7 = test system: MCF7
MDA-MB-435 = test system: MDA-MB-435
MDA-N = test system: MDA-N
MOLT-4 = test system: MOLT-4
Malme-3M = test system: Malme-3M
NCI-H226 = test system: NCI-H226
NCI-H23 = test system: NCI-H23
NCI-H460 = test system: NCI-H460
NCI-H522 = test system: NCI-H522
NCI/ADR-RES = test system: NCI/ADR-RES
OVCAR-3 = test system: OVCAR-3
OVCAR-4 = test system: OVCAR-4
OVCAR-5 = test system: OVCAR-5
OVCAR-8 = test system: OVCAR-8
PC-3 = test system: PC-3
RPMI-8226 = test system: RPMI-8226
RXF 393 = test system: RXF 393
SF-268 = test system: SF-268
SF-295 = test system: SF-295
SF-539 = test system: SF-539
SK-MEL-28 = test system: SK-MEL-28
SK-MEL-2 = test system: SK-MEL-2
SK-MEL-5 = test system: SK-MEL-5
SK-OV-3 = test system: SK-OV-3
SN12C = test system: SN12C
SNB-19 = test system: SNB-19
SNB-75 = test system: SNB-75
SR = test system: SR
SW-620 = test system: SW-620
T47D = test system: T47D
TK-10 = test system: TK-10
U-251 = test system: U-251
UACC-257 = test system: UACC-257
UACC-62 = test system: UACC-62
UO-31 = test system: UO-31
MDA-MB-231 = test system: MDA-MB-231

Measured: GI50

CCOC(=O)/C(=C\NCc1ccc2c(c1)OCO2)c1nc2ccccc2[nH]1
44.9 µM: HCT-15
inactive: 786-0 36.9 µM | A498 > 100 µM | A549 35.4 µM | ACHN 38.4 µM | BT-549 83.4 µM | CAKI-1 > 100 µM | CCRF-CEM 42 µM | COLO 205 32.7 µM | DU-145 > 100 µM | EKVX > 100 µM | HCC 2998 42.7 µM | HCT-116 39.8 µM | HL-60 48.8 µM | HOP-62 71.3 µM | HOP-92 71.9 µM | HT-29 24.6 µM | Hs-578T 56.8 µM | IGROV-1 40.3 µM | K562 52.2 µM | KM12 42.7 µM | LOX IMVI 42.2 µM | M14 47.2 µM | MCF7 59.8 µM | MDA-MB-435 48.6 µM | MDA-N 75 µM | MOLT-4 30.5 µM | Malme-3M 41.7 µM | NCI-H226 > 100 µM | NCI-H23 25.6 µM | NCI-H460 24.9 µM | NCI-H522 28.2 µM | NCI/ADR-RES 60.3 µM | OVCAR-3 43 µM | OVCAR-4 57.3 µM | OVCAR-5 94.8 µM | OVCAR-8 43 µM | PC-3 50 µM | RPMI-8226 25.5 µM | RXF 393 > 100 µM | SF-268 61.4 µM | SF-295 53.5 µM | SF-539 35.4 µM | SK-MEL-28 60.7 µM | SK-MEL-2 48.4 µM | SK-MEL-5 25.8 µM | SK-OV-3 > 100 µM | SN12C > 100 µM | SNB-19 46.9 µM | SNB-75 77.3 µM | SR 48.1 µM | SW-620 98.2 µM | T47D 35.9 µM | TK-10 22.8 µM | U-251 82 µM | UACC-257 64.6 µM | UACC-62 26.9 µM | UO-31 79.4 µM

COc1ccc(C2=C(Cl)c3cc(OC)c(OC)cc3C2=O)cc1OC
6.9 µM: HCT-15
inactive: 786-0 3.43 µM | A498 18.1 µM | A549 36.9 µM | ACHN 5.57 µM | BT-549 16.1 µM | CAKI-1 2.28 µM | CCRF-CEM 3.93 µM | COLO 205 3.16 µM | DU-145 18.7 µM | EKVX 20.1 µM | HCC 2998 22.6 µM | HCT-116 4.22 µM | HL-60 1.8 µM | HOP-62 15.3 µM | HOP-92 1.8 µM | HT-29 5.38 µM | Hs-578T 30 µM | IGROV-1 17.5 µM | KM12 17.4 µM | LOX IMVI 12 µM | M14 4.84 µM | MCF7 13.1 µM | MDA-MB-231 16.4 µM | MDA-MB-435 15.9 µM | MDA-N 18.5 µM | MOLT-4 3.63 µM | Malme-3M 13.2 µM | NCI-H226 38.7 µM | NCI-H23 12 µM | NCI-H522 12.6 µM | NCI/ADR-RES 21.9 µM | OVCAR-3 1.77 µM | OVCAR-4 12.1 µM | OVCAR-5 19.8 µM | OVCAR-8 16.9 µM | RPMI-8226 18.1 µM | RXF 393 5.7 µM | SF-268 18.9 µM | SF-295 > 100 µM | SF-539 21.3 µM | SK-MEL-2 14.4 µM | SK-MEL-5 15.9 µM | SK-OV-3 21 µM | SN12C 18 µM | SNB-19 > 100 µM | SNB-75 61 µM | SR 6.11 µM | SW-620 12.7 µM | T47D 2.95 µM | TK-10 13 µM | UACC-257 4.28 µM | UACC-62 15.4 µM | UO-31 16.6 µM

CSc1ccc(C2C(Cl)C(=O)N2NC(=O)c2c(Cl)c(Cl)c(Cl)c(Cl)c2-c2nc3ccccc3[nH]2)cc1 (stereo not given)
active: IGROV-1 0.402 µM
inactive: 786-0 18.4 µM | A498 31.8 µM | A549 31.4 µM | ACHN 24.2 µM | BT-549 17.2 µM | CAKI-1 14.9 µM | CCRF-CEM 2.48 µM | COLO 205 20.3 µM | DU-145 15.8 µM | EKVX 16.5 µM | HCC 2998 20.2 µM | HCT-116 15.8 µM | HL-60 19.1 µM | HOP-62 79.3 µM | HOP-92 11.5 µM | HT-29 33.3 µM | Hs-578T 32.5 µM | K562 18.1 µM | KM12 16.8 µM | LOX IMVI 4.18 µM | M14 20.5 µM | MCF7 19.3 µM | MDA-MB-435 13.3 µM | MDA-N 21.5 µM | MOLT-4 4.7 µM | Malme-3M 19 µM | NCI-H226 16.1 µM | NCI-H23 15.6 µM | NCI-H522 1.83 µM | NCI/ADR-RES 29.9 µM | OVCAR-3 21.8 µM | OVCAR-5 22.3 µM | OVCAR-8 18.8 µM | PC-3 17.5 µM | RXF 393 1.97 µM | SF-268 19.1 µM | SF-295 33.1 µM | SF-539 20.8 µM | SK-MEL-28 17.2 µM | SK-MEL-2 31.6 µM | SK-MEL-5 17.1 µM | SK-OV-3 26.6 µM | SN12C 15.8 µM | SNB-19 29.7 µM | SNB-75 15.2 µM | SR 2.9 µM | SW-620 25.8 µM | T47D 4.28 µM | UACC-257 27.2 µM | UACC-62 29.8 µM | UO-31 3.93 µM
19.1 µM: HCT-15
